Results as given in ChEMBL document CHEMBL2150977, “Synthesis of highly water-soluble fibrate derivatives via BGLation” (Bioorg Med Chem Lett, 2012).
Active and inactive are the calls of the source. The calls are words filed in the database; no cut-off is given here.

Tests used:
[1] = Aqueous solubility of the compound; format: physicochemical; conditions: water
Rattus norvegicus [2] = assay: Antihyperlipidemic activity in Sprague-Dawley rat assessed as decrease in plasma triglyceride level at […], po administered QD for 8 days relative to vehicle-treated control; format: functional, organism-based
Rattus norvegicus [3] = assay: Toxicity in Sprague-Dawley rat assessed as aberrant behaviour at […], po relative to vehicle-treated control; format: organism-based; conditions: in vivo
Rattus norvegicus [4] = assay: Toxicity in Sprague-Dawley rat assessed as body weight loss at […], po relative to vehicle-treated control; format: organism-based; conditions: in vivo
Rattus norvegicus [5] = assay: Drug metabolism in Sprague-Dawley rat assessed as fenofibric acid level in plasma at 100 mg/kg, po after 4 hrs; format: ADME, organism-based; design: dose 100 mg/kg, route oral; conditions: in vivo
Rattus norvegicus [6] = assay: Drug metabolism in Sprague-Dawley rat assessed as fenofibric acid level in plasma at 150 mg/kg, po after 4 hrs; format: ADME, organism-based; design: dose 150 mg/kg, route oral; conditions: in vivo

Row | solubility [1] [µg/mL] | Drug metabolism (Rattus norvegicus [5]) | Drug metabolism (Rattus norvegicus [6]) | SMILES | Activity (Rattus norvegicus [2]) | Activity (Rattus norvegicus [3]) | Activity (Rattus norvegicus [4])
1 |  | Active |  | CC(C)OC(=O)C(C)(C)Oc1ccc(C(=O)c2ccc(Cl)cc2)cc1 [FENOFIBRATE] | Active |  | 
2 | > 1000 |  | Active | CC(C)(Oc1ccc(C(=O)c2ccc(Cl)cc2)cc1)C(=O)OC(COC(CO)CO)COC(CO)CO | Active | Non-toxic | Non-toxic

More lines, now with the values behind:

Row | SMILES | solubility [1] [µg/mL] | Drug metabolism (Rattus norvegicus [5]) | Drug metabolism (Rattus norvegicus [6]) | Activity (Rattus norvegicus [2]) | Activity (Rattus norvegicus [3]) | Activity (Rattus norvegicus [4])
3 | CC(C)(Oc1ccc(CCNC(=O)c2ccc(Cl)cc2)cc1)C(=O)OC(COC(CO)CO)COC(CO)CO | > 1000 |  |  |  |  | 
4 | CC(C)(Oc1ccc(C(=O)c2ccc(Cl)cc2)cc1)C(=O)OC(CO)CO |  |  |  | Active | Non-toxic | Non-toxic
5 | CC(C)(Oc1ccc(Cl)cc1)C(=O)OC(COC(CO)CO)COC(CO)CO | > 1000 |  |  |  |  | 
6 | CC(C)(Oc1ccc(C(=O)c2ccc(Cl)cc2)cc1)C(=O)OCCO |  |  |  | Active | Non-toxic | Non-toxic
